Source: patent US20100041089A1, “IMPROVED METHOD FOR DETECTING CHEMICAL […]” (priority 2006, published 2010)

Tested on: yeast genes (expressed mRNA)
Assay: DNA chip measurement of expressed mRNA of yeast genes after culture with a toxic chemical substance
Assay type: cell-based, Saccharomyces cerevisiae S288C
Outline: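 Expression is given as treated/untreated fluorescence ratio on a whole-genome yeast DNA chip, a ratio of two or more being significant. Log-phase S288C cultures in YPD at 25 °C received the chemical for 2 h at a dose that slows growth without killing. mRNA was reverse-transcribed with Cy3- or Cy5-dUTP.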

For COc1cc(CNC(=O)CCCCC=CC(C)C)ccc1O [(12), 8-Methyl-N-vanillyl-6-nonenamide], which “The level of expressed mRNA in the presence of chemical substance/The level of expressed mRNA in the absence of chemical substance” value (yeast gene YFL024C, cultured two hours with substance) is on record?
Its value is 0.8.

And the “The level of expressed mRNA in the presence of chemical substance/The level of expressed mRNA in the absence of chemical substance” value (yeast gene YFL032W, cultured two hours with substance)?
Its value is 0.7.

What about the “The level of expressed mRNA in the presence of chemical substance/The level of expressed mRNA in the absence of chemical substance” value (yeast gene YGL001C) of the same compound?
The value was 0.9.

And the “The level of expressed mRNA in the presence of chemical substance/The level of expressed mRNA in the absence of chemical substance” value (yeast gene YGL037C, cultured two hours with substance)?
The value was 0.8.

What about the “The level of expressed mRNA in the presence of chemical substance/The level of expressed mRNA in the absence of chemical substance” value (yeast gene YGL047W, cultured two hours with substance) of the same compound?
Its value is 1.1.

And the “The level of expressed mRNA in the presence of chemical substance/The level of expressed mRNA in the absence of chemical substance” value (yeast gene YGL053W, cultured two hours with substance)?
Its value is 1.3.

And the “The level of expressed mRNA in the presence of chemical substance/The level of expressed mRNA in the absence of chemical substance” value (yeast gene YGL062W, cultured for two hours with substance)?
Its value is 1.6.

What about the “The level of expressed mRNA in the presence of chemical substance/The level of expressed mRNA in the absence of chemical substance” value (yeast gene YGL104C) of the same compound?
The value was 1.1.

What about the “The level of expressed mRNA in the presence of chemical substance/The level of expressed mRNA in the absence of chemical substance” value (yeast gene YGL115W (stress protein genes)) of the same compound?
The value was 0.9.

What about the “The level of expressed mRNA in the presence of chemical substance/The level of expressed mRNA in the absence of chemical substance” value (yeast gene YGL117W, cultured two hours with substance) of the same compound?
The value was 1.5.

And the “The level of expressed mRNA in the presence of chemical substance/The level of expressed mRNA in the absence of chemical substance” value (yeast gene YGL121C, cultured two hours with substance)?
The value was 1.6.

And the “The level of expressed mRNA in the presence of chemical substance/The level of expressed mRNA in the absence of chemical substance” value (yeast gene YGL136C, cultured two hours with substance)?
The value was 1.1.

What about the “The level of expressed mRNA in the presence of chemical substance/The level of expressed mRNA in the absence of chemical substance” value (yeast gene YGL199C, cultured two hours with substance) of the same compound?
The value was 0.9.

And the “The level of expressed mRNA in the presence of chemical substance/The level of expressed mRNA in the absence of chemical substance” value (yeast gene YGL209W)?
Its value is 1.3.

And the “The level of expressed mRNA in the presence of chemical substance/The level of expressed mRNA in the absence of chemical substance” value (yeast gene YGR035C, cultured two hours with substance)?
The value was 3.3.

What about the “The level of expressed mRNA in the presence of chemical substance/The level of expressed mRNA in the absence of chemical substance” value (yeast gene YGR055W, metabolism protein genes) of the same compound?
Its value is 0.9.

And the “The level of expressed mRNA in the presence of chemical substance/The level of expressed mRNA in the absence of chemical substance” value (yeast gene YGR101W, cultured two hours with substance)?
Its value is 1.0.

What about the “The level of expressed mRNA in the presence of chemical substance/The level of expressed mRNA in the absence of chemical substance” value (yeast gene YGR110W, cultured two hours with substance) of the same compound?
The value was 1.4.

And the “The level of expressed mRNA in the presence of chemical substance/The level of expressed mRNA in the absence of chemical substance” value (yeast gene YGR130C, cultured two hours with substance)?
Its value is 0.7.

What about the “The level of expressed mRNA in the presence of chemical substance/The level of expressed mRNA in the absence of chemical substance” value (yeast gene YGR142W, cultured two hours with substance) of the same compound?
The value was 2.0.

What about the “The level of expressed mRNA in the presence of chemical substance/The level of expressed mRNA in the absence of chemical substance” value (yeast gene YGR146C, cultured two hours with substance) of the same compound?
The value was 1.4.

And the “The level of expressed mRNA in the presence of chemical substance/The level of expressed mRNA in the absence of chemical substance” value (yeast gene YGR154C, cultured two hours with substance)?
Its value is 0.9.

And the “The level of expressed mRNA in the presence of chemical substance/The level of expressed mRNA in the absence of chemical substance” value (yeast gene YGR221C, cultured two hours with substance)?
The value was 1.6.

What about the “The level of expressed mRNA in the presence of chemical substance/The level of expressed mRNA in the absence of chemical substance” value (yeast gene YGR281W (transport facilitation protein gene)) of the same compound?
The value was 2.4.

And the “The level of expressed mRNA in the presence of chemical substance/The level of expressed mRNA in the absence of chemical substance” value (yeast gene YGR282C)?
Its value is 1.3.

And the “The level of expressed mRNA in the presence of chemical substance/The level of expressed mRNA in the absence of chemical substance” value (yeast gene YGR284C, cultured two hours with substance)?
Its value is 2.1.

What about the “The level of expressed mRNA in the presence of chemical substance/The level of expressed mRNA in the absence of chemical substance” value (yeast gene YHL038C, mitochondria-located protein gene, cultured two hours with substance) of the same compound?
Its value is 1.6.

And the “The level of expressed mRNA in the presence of chemical substance/The level of expressed mRNA in the absence of chemical substance” value (yeast gene YHL047C (transport facilitation protein gene))?
Its value is 2.6.

What about the “The level of expressed mRNA in the presence of chemical substance/The level of expressed mRNA in the absence of chemical substance” value (yeast gene YHR029C, cultured two hours with substance) of the same compound?
The value was 1.5.

And the “The level of expressed mRNA in the presence of chemical substance/The level of expressed mRNA in the absence of chemical substance” value (yeast gene YHR054C, cultured two hours with substance)?
The value was 3.6.

And the “The level of expressed mRNA in the presence of chemical substance/The level of expressed mRNA in the absence of chemical substance” value (yeast gene YHR111W, metabolism protein genes)?
The value was 0.9.

And the “The level of expressed mRNA in the presence of chemical substance/The level of expressed mRNA in the absence of chemical substance” value (yeast gene YHR138C, cultured two hours with substance)?
Its value is 1.8.

And the “The level of expressed mRNA in the presence of chemical substance/The level of expressed mRNA in the absence of chemical substance” value (yeast gene YHR179W, cultured for two hours with substance)?
Its value is 2.2.

And the “The level of expressed mRNA in the presence of chemical substance/The level of expressed mRNA in the absence of chemical substance” value (yeast gene YHR199C, cultured two hours with substance)?
The value was 1.1.

What about the “The level of expressed mRNA in the presence of chemical substance/The level of expressed mRNA in the absence of chemical substance” value (yeast gene YHR209W, cultured two hours with substance) of the same compound?
The value was 1.0.

And the “The level of expressed mRNA in the presence of chemical substance/The level of expressed mRNA in the absence of chemical substance” value (yeast gene YIL023C, cultured two hours with substance)?
The value was 0.9.

What about the “The level of expressed mRNA in the presence of chemical substance/The level of expressed mRNA in the absence of chemical substance” value (yeast gene YIL024C, cultured two hours with substance) of the same compound?
Its value is 0.7.

And the “The level of expressed mRNA in the presence of chemical substance/The level of expressed mRNA in the absence of chemical substance” value (yeast gene YIL041W, cultured two hours with substance)?
Its value is 1.0.

What about the “The level of expressed mRNA in the presence of chemical substance/The level of expressed mRNA in the absence of chemical substance” value (yeast gene YIL077C, cultured two hours with the substance) of the same compound?
Its value is 1.6.

And the “The level of expressed mRNA in the presence of chemical substance/The level of expressed mRNA in the absence of chemical substance” value (yeast gene YIL087C, cultured two hours with substance)?
The value was 1.1.

And the “The level of expressed mRNA in the presence of chemical substance/The level of expressed mRNA in the absence of chemical substance” value (yeast gene YIL117C, cultured two hours with substance)?
Its value is 1.4.

What about the “The level of expressed mRNA in the presence of chemical substance/The level of expressed mRNA in the absence of chemical substance” value (yeast gene YIL154C) of the same compound?
Its value is 1.1.

What about the “The level of expressed mRNA in the presence of chemical substance/The level of expressed mRNA in the absence of chemical substance” value (yeast gene YIL167W) of the same compound?
The value was 0.7.

And the “The level of expressed mRNA in the presence of chemical substance/The level of expressed mRNA in the absence of chemical substance” value (yeast gene YJL020C, cultured two hours with substance)?
Its value is 0.7.

And the “The level of expressed mRNA in the presence of chemical substance/The level of expressed mRNA in the absence of chemical substance” value (yeast gene YJL052W, cultured for two hours with substance)?
The value was 2.4.

And the “The level of expressed mRNA in the presence of chemical substance/The level of expressed mRNA in the absence of chemical substance” value (yeast gene YJL057C, cultured two hours with substance)?
Its value is 1.0.

What about the “The level of expressed mRNA in the presence of chemical substance/The level of expressed mRNA in the absence of chemical substance” value (yeast gene YJL066C, cultured two hours with substance) of the same compound?
The value was 1.0.

What about the “The level of expressed mRNA in the presence of chemical substance/The level of expressed mRNA in the absence of chemical substance” value (yeast gene YJL082W, cultured two hours with substance) of the same compound?
The value was 1.3.

What about the “The level of expressed mRNA in the presence of chemical substance/The level of expressed mRNA in the absence of chemical substance” value (yeast gene YJL108C, cultured two hours with substance) of the same compound?
The value was 0.4.

What about the “The level of expressed mRNA in the presence of chemical substance/The level of expressed mRNA in the absence of chemical substance” value (yeast gene YJL149W, cultured two hours with substance) of the same compound?
The value was 1.1.
